Measurements reported in PubChem BioAssay (NCI).
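1) Cells in 96-well plates. 2) Compound, 48 h, 5 concentrations. 3) Linear interpolation between surrounding doses. 4) Unreached endpoint = highest concentration. TGI marks complete inhibition of growth.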

Experiments:
Assay in all cases: DTP human tumour cell line panel, 48 h
[1] = tested on: SK-OV-3 ovarian
[2] = tested on: SNB-78 CNS
[3] = tested on: NCI-H522 lung
[4] = tested on: HOP-18 NSCLC
[5] = tested on: SW-620 colon
[6] = tested on: DLD-1 colon
[7] = tested on: MOLT-4 leukemia
[8] = tested on: KM20L2 colon
[9] = tested on: LXFL 529 NSCLC
[10] = tested on: DMS 114 small cell lung
[11] = tested on: M14 melanoma
[12] = tested on: DMS 273 small cell lung
[13] = tested on: XF 498 CNS
[14] = tested on: M19-MEL melanoma
[15] = tested on: OVCAR-8 ovarian
[16] = tested on: T-47D breast
[17] = tested on: RXF-631 renal

SMILES	TGI [1] [µM]	TGI [2] [µM]	TGI [3] [µM]	TGI [4] [µM]	TGI [5] [µM]	TGI [6] [µM]	TGI [7] [µM]	TGI [8] [µM]	TGI [9] [µM]	TGI [10] [µM]	TGI [11] [µM]	TGI [12] [µM]	TGI [13] [µM]	TGI [14] [µM]	TGI [15] [µM]	TGI [16] [µM]	TGI [17] [µM]
CC[n+]1c(/C=C/c2ccc(N(CCCl)CCCl)cc2)ccc2cc(I)ccc21	6.42	36	1.64	8.54	6.96	6.14	3.03	1.88	1.52	> 100	–	–	–	–	–	–	–
CCn1c(CSc2nc(-c3ccccc3)c(-c3ccccc3)[nH]2)n[nH]c1=S	> 100	> 100	> 100	–	–	> 100	> 100	> 100	> 100	> 100	> 100	> 100	> 100	> 100	> 100	–	–
[N-]=[N+]=Nc1ccc2c(c1)Sc1ccccc1N2CCCCN1CCN(C(=O)CCNC(=O)Cc2ccc(C(=O)c3ccccc3)cc2)CC1	> 100	–	7.51	–	> 39.3	–	5.86	–	–	–	11.8	–	–	–	> 100	28.7	–
Cc1ccc(C2C(Cl)C(=O)N2NC(=O)c2ccc(N)cc2)cc1 (stereo not given)	37.4	46.2	25.6	–	41.3	40.2	35.3	48.2	29.3	23.3	36.6	17.4	26.5	38.9	38.8	–	–
O=C(NC1(C(=O)O)CCCC1)c1ccccc1	> 100	–	> 100	–	> 100	–	> 100	–	–	–	> 100	–	–	–	> 100	> 100	–
COc1ccc(/C(Cl)=C(\C=O)c2ccc(Cl)cc2)cc1OC	> 100	> 100	6.27	> 100	15.4	> 100	6.62	31.9	37.4	59.5	97.3	> 100	–	48.3	28.6	–	> 100
C=CC[C@]1(C2=NC(C)(C)CO2)c2ccccc2-c2ccccc2[C@H]1C(C)=O	> 54.9	–	9.45	–	34.4	–	50	–	–	–	21.7	–	–	–	> 52.8	> 69.5	–
C=C(C)C(=O)OC1C[C@H](COC(C)=O)C2CC=C(CO)C2C2OC(=O)C(=C)[C@H]12 (stereo not given in full)	> 100	–	33.8	–	40	–	45.7	–	–	–	31	–	–	–	> 100	> 100	–
N#Cc1c(-c2ccccc2)cc(Nc2ccc(Cl)cc2)n2c1nc1ccccc12	> 30.4	–	11.6	–	> 100	–	9.5	–	–	–	> 100	–	–	–	> 57	> 43	–
C#C[C@]1(O)CC[C@H]2[C@@H]3CCC4=C/C(=N/OC(=O)c5cccc6c(=O)c7ccccc7[nH]c56)CCC4[C@H]3CC[C@@]21CC (stereo not given in full)	> 100	–	56.1	–	> 63.5	–	> 69.2	–	–	–	> 100	–	–	–	> 100	> 75.9	–
CN(C)c1ccc(/C=C(\NC(=O)c2ccccc2)C(=O)NC(Cc2c[nH]c3ccccc23)C(=O)O)cc1 (stereo not given)	> 100	–	> 100	–	> 100	–	> 100	–	–	–	> 100	–	–	–	> 100	> 100	–
COc1cc(S(=O)(=O)Nc2ccc(-c3csc(N4C(=O)C(Cl)C4c4cccs4)n3)cc2)ccc1Cl (stereo not given)	> 100	–	30.6	–	> 100	–	> 100	–	–	–	> 100	–	–	–	> 100	> 100	–
CCOC1CCN(C(=O)c2ccccc2)O1 (stereo not given)	> 10	–	> 10	–	> 10	–	> 10	–	–	–	> 10	–	–	–	> 10	> 10	–
